Paper PMC9401864, “Cell‐Free Protein Synthesis for the Screening of Novel Azoreductases and Their Preferred Electron Donor” (Chembiochem, 2022)

Key:
Assay type in all cases: biochemical
TvarAzoR [1] = molecular target: T1, TvarAzoR (Trichormus variabilis, UniProt Q3M1N6); test: Brilliant Black degradation at […] nm, reconstituted cell-free (PURE) mix; settings: 150 uM NADH; 50 uM FMN; 100 mM sodium phosphate pH 6; 25 °C; 30 uM dye
T1 construct: gene azoR1; codon-optimised gene in pET-24a(+); cell-free synthesis (PUREfrex2.0), unpurified
T1 sequence (Q3M1N6 1-207): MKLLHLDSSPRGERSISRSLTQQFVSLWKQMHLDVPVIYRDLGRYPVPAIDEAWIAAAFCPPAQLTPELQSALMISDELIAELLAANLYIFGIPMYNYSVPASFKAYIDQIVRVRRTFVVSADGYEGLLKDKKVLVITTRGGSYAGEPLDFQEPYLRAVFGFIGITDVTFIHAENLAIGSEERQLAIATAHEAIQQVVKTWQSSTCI

RopaAzoR [2] = molecular target: T2, RopaAzoR (Rhodococcus opacus, UniProt A0A1B1KJ01); test: as above; settings: 150 uM NADH; 50 uM FMN; 100 mM sodium phosphate pH 6; 25 °C; 30 uM dye
T2 construct: gene azoR; cell-free synthesis (PUREfrex2.0), unpurified
T2 sequence (A0A1B1KJ01 1-214): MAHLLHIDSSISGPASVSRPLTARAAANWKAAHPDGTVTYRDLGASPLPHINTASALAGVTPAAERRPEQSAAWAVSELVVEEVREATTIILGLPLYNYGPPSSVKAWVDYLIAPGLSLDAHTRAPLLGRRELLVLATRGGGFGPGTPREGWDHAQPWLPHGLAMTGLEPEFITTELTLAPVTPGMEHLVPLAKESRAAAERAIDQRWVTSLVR

RferAzoR [3] = molecular target: T3, RferAzoR (Rhodoferax ferrireducens, UniProt Q220J4); test: as above; settings: 150 uM NADH; 50 uM FMN; 100 mM sodium phosphate pH 6; 25 °C; 30 uM dye
T3 construct: gene azoR; codon-optimised gene in pET-24a(+); cell-free synthesis (PUREfrex2.0), unpurified
T3 sequence (Q220J4 1-203): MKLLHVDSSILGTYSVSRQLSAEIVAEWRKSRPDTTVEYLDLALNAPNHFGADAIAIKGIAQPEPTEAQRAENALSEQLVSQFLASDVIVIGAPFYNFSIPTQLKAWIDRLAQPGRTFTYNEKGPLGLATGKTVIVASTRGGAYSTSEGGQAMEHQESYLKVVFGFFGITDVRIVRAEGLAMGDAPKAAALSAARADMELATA

StypAzoR [4] = molecular target: T4, StypAzoR (Salmonella enterica, UniProt P63462); test: as above; settings: 150 uM NADH; 50 uM FMN; 100 mM sodium phosphate pH 6; 25 °C; 30 uM dye
T4 construct: gene azoR; codon-optimised gene in pET-24a(+); cell-free synthesis (PUREfrex2.0), unpurified
T4 sequence (P63462 2-201): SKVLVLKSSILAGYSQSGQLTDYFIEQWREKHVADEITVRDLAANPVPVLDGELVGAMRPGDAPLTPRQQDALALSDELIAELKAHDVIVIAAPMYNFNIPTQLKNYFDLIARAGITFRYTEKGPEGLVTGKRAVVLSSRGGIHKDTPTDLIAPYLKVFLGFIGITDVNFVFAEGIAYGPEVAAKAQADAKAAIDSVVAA

EfaeAzoR [5] = molecular target: T5, EfaeAzoR (Enterococcus faecalis, UniProt Q831B2); test: methyl red degradation at […] nm with NADH as electron donor, reconstituted cell-free (PURE) mix; settings: 30 uM methyl red; 150 uM NADH; 50 uM FMN; 100 mM sodium phosphate pH 6; 25 °C
T5 construct: gene azoR; codon-optimised gene in pET-24a(+); cell-free synthesis (PUREfrex2.0), unpurified
T5 sequence (Q831B2 whole entry): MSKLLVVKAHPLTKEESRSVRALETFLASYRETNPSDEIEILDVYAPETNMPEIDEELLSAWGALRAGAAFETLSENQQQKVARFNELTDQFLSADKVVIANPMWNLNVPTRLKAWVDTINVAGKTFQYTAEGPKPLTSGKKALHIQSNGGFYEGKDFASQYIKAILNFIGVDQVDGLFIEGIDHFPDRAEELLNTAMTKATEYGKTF

PaerAzoR [6] = molecular target: T6, PaerAzoR (Pseudomonas aeruginosa, UniProt Q9I5F3); test: methyl red degradation at […] nm with BNAH as electron donor, reconstituted cell-free (PURE) mix; settings: 30 uM methyl red; 150 uM BNAH; 50 uM FMN; 100 mM sodium phosphate pH 6; 25 °C
T6 construct: gene azoR1; codon-optimised gene in pET-24a(+); cell-free synthesis (PUREfrex2.0), unpurified
T6 sequence (Q9I5F3 1-212): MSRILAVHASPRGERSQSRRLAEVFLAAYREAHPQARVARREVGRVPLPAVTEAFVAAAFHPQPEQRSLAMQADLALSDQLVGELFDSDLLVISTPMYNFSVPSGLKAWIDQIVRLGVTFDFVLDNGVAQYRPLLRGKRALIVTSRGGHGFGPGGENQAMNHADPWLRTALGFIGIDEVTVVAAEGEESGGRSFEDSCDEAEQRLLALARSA

StypAzoR [7] = molecular target: T4, StypAzoR; test: methyl red degradation at […] nm, reconstituted cell-free (PURE) mix; settings: 150 uM NADH, NADPH or BNAH; 50 uM FMN; 100 mM sodium phosphate pH 6; 25 °C; 30 uM dye
PaerAzoR [8] = molecular target: T6, PaerAzoR; test: as above; settings: 150 uM BNAH; 50 uM FMN; 100 mM sodium phosphate pH 6; 25 °C; 30 uM dye
EfaeAzoR [9] = molecular target: T5, EfaeAzoR; test: as above; settings: 150 uM NADH, NADPH or BNAH; 50 uM FMN; 100 mM sodium phosphate pH 6; 25 °C; 30 uM dye
TvarAzoR [10] = molecular target: T1, TvarAzoR; test: as above; settings: 150 uM NADH, NADPH or BNAH; 50 uM FMN; 100 mM sodium phosphate pH 6; 25 °C; 30 uM dye
RopaAzoR [11] = molecular target: T2, RopaAzoR; test: as above; settings: 150 uM NADH; 50 uM FMN; 100 mM sodium phosphate pH 6; 25 °C; 30 uM dye
RferAzoR [12] = molecular target: T3, RferAzoR; test: as above; settings: 150 uM NADH, NADPH or BNAH; 50 uM FMN; 100 mM sodium phosphate pH 6; 25 °C; 30 uM dye

For `CC(=O)Nc1ccc(S(=O)(=O)O)c2cc(S(=O)(=O)O)c(N=Nc3ccc(N=Nc4ccc(S(=O)(=O)O)cc4)c4ccc(S(=O)(=O)O)cc34)c(O)c12` [Brilliant Black], the “Brilliant Black degradation at 570 nm, reconstituted cell-free (PURE) mix” value (TvarAzoR [1]) was “All five enzymes and RopaAzoR were able to degrade BB”, the “Brilliant Black degradation at 570 nm, reconstituted cell-free (PURE) mix” value (RopaAzoR [2]) was “All five enzymes and RopaAzoR were able to degrade BB” and the “Brilliant Black degradation at 570 nm, reconstituted cell-free (PURE) mix” value (RferAzoR [3]) was “All five enzymes and RopaAzoR were able to degrade BB”. The “Brilliant Black degradation at 570 nm, reconstituted cell-free (PURE) mix” value (StypAzoR [4]) was “All five enzymes and RopaAzoR were able to degrade BB”.

For `NC(=O)C1=CN([C@@H]2O[C@H](COP(=O)(O)OP(=O)(O)OC[C@H]3O[C@@H](n4cnc5c(N)ncnc54)[C@H](O)[C@@H]3O)[C@@H](O)[C@H]2O)C=CC1` [NADH], the “methyl red degradation at 430 nm with NADH as electron donor, reconstituted cell” value (EfaeAzoR [5]) was “EfaeAzoR seems to have a strong preference for NADH”.

For `NC(=O)C1=CN(Cc2ccccc2)C=CC1` [BNAH, 1‐benzyl‐1,4‐dihydronicotinamide], the “methyl red degradation at 430 nm with BNAH as electron donor, reconstituted cell” value (PaerAzoR [6]) was “PaerAzoR catalyzed the degradation of methyl red using BNAH as co‐substrate”.

For `CN(C)c1ccc(/N=N/c2ccccc2C(=O)O)cc1` [methyl red], the “methyl red degradation at 430 nm, reconstituted cell-free (PURE) mix” value (StypAzoR [7]) was “all undescribed enzymes catalyzed the degradation of methyl red”, the “methyl red degradation at 430 nm, reconstituted cell-free (PURE) mix” value (PaerAzoR [8]) was “PaerAzoR catalyzed the degradation of methyl red using BNAH as co‐substrate” and the “methyl red degradation at 430 nm, reconstituted cell-free (PURE) mix” value (EfaeAzoR [9]) was “Noteworthy are the very high activities of StypAzoR and EfaeAzoR”. For the same compound, the “methyl red degradation at 430 nm, reconstituted cell-free (PURE) mix” value (TvarAzoR [10]) was “all undescribed enzymes catalyzed the degradation of methyl red”, the “methyl red degradation at 430 nm, reconstituted cell-free (PURE) mix” value (RopaAzoR [11]) was “active RopaAzoR was synthesized, and substrate degradation was detected in the activity assay” and the “methyl red degradation at 430 nm, reconstituted cell-free (PURE) mix” value (RferAzoR [12]) was “all undescribed enzymes catalyzed the degradation of methyl red”.
